# Measurements from patent US10774039B2, “Cyclopropene amino acids and methods” (United Kingdom Research and Innovation, priority 2014, dated 2020).
# How the values were obtained:
# PylRS/tRNACUA pair = PylRS/tRNACUA pair (Methanosarcina mazei, UniProt Q8PWY1); assay: Amber suppression of mCherry-TAG-EGFP-HA in HEK293 cells (western blot); type: cell-based; parameters: expressed in transfected cells; host or cells: HEK293 (ATCC CRL-1573); details: amber stop codon
# Description: Anti-FLAG detected tagged PylRS. FIG. 8B: Specific labelling of mCh-TAG-EGFP-HA (immunoprecipitated from 10^6 cells) with 4a (20 μM in 50 μL PBS, 1 h, RT) confirms the incorporation of 3 into protein in HEK293 cells. FIG. 8C: SORT-M labelling of 3 that is statistically incorporated into newly synthesised proteins across the whole proteome of mammalian cells directed by six different PylRS/PyltRNAXXX (mutants using 0.5 mM 3. Labeling with 4g (20 μM in PBS, 1 h, RT, as above). The amino acids in parentheses are the natural amino acids encoded by the endogenous tRNA bearing the corresponding anti-codon.
# HEK293 Cells (ATCC CRL-1573) were plated on 24 well plates and grown to near confluence. The cells were transfected using Lipofectamine 2000 (Invitrogen) with the pMmPylS-mCherry-TAG-EGFP-HA construct and the p4CMVE-U6-PylT construct.^18 After 16 hrs growth with or without 1 mM 3 or with 1 mM 1 the cells were lysed on ice using RIPA buffer (Sigma). The lysates were spun down and the supernatant was added to 4×LDS sample buffer (Life technologies). The samples were run out by SDS-PAGE, transferred to a nitrocellulose membrane and blotted using primary rat anti-HA(clone 3F10, Roche, No. 867 423) and mouse anti-FLAG (clone G191, Abnova, cat. MAB8183), the secondary antibodies were anti-rat (Invitrogen, A11077) and anti-mouse (Cell Signaling Technologies, No. 7076S).
# PylRS, PyltRNAUUU = assay: Time-dependent proteome incorporation of 3 via SORT-M in E. coli, detected with 4a; type: cell-based; details: AAA codon, detection with 4a
# Description: Chemically competent DH10B cells were transformed with two plasmids: pBKwtPylRS necessary for expression of PylRS, and pBAD_wtT4LMbPylTUUU plasmid that is required for expression of PyltRNAUUU. pBAD_wtT4L_MbPylTUUU plasmid also contains the gene for expression of T4 lysozyme that is downstream of arabinose-inducible promoter. After transformation, cells were recovered in 1 ml SOB medium for one hour at 37° C. prior to inoculation in 10 ml LB-KT (LB media with 50 μg ml^−1 kanamycin, and 25 μg tetracycline). The culture was incubated overnight (37° C., 250 rpm, 12 h) and subsequently diluted to an OD600˜0.3 in 30 mL LB-KT1/2 (LB media with 25 μg ml^−1 kanamycin, and 12.5 μg ml^−1 tetracycline) supplemented with 3 at different concentrations, 0, 0.1, 0.5 mM. The cultures was incubated (37° C., 250 rpm) for 1 h, when OD600 reached approximately 0.6. 2 ml culture aliquot was collected in a separate tube for each of three cultures. This is the pre-induction culture (lane labelled as 1 in the gel image). Subsequently arabinose was added at a final concentration of 0.2% (v/v) to induce expression of T4 lysozyme and culture aliquots of 2 mL were collected every hour (lanes labelled as 2, 3 and 4 corresponding to 1, 2 and 3 h culture collection after induction). […] Samples were analysed by 4-12% SDS-PAGE and fluorescent images were acquired using Typhoon Trio phosphoimager (GE Life Sciences) […]
# Sequence of PylRS/tRNACUA pair (Q8PWY1 whole entry): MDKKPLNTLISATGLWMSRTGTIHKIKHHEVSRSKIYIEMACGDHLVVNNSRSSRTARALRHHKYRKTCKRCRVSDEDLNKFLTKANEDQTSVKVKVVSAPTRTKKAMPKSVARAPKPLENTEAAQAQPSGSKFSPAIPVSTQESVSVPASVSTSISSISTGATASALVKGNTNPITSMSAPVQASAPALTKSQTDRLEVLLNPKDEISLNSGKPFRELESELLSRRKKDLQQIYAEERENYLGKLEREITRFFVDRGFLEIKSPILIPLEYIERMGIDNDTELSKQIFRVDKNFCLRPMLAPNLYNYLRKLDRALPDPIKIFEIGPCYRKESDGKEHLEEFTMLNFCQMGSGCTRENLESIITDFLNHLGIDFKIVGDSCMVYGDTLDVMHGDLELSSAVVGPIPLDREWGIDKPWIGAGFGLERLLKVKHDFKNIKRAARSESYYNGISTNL
smiles,measurement,setting,value
"CC1=CC1COC(=O)NCCCC[C@H](N)C(=O)O (stereo partly drawn) [amino acid 3, N^ε-[((2-methylcycloprop-2-en-1-yl)methoxy)carbonyl]-L-lysine]",full-length mCherry-EGFP-HA protein expression,PylRS/tRNACUA pair,detected only in the presence
same,time to substantial labelling after amino acid addition,"PylRS, PyltRNAUUU",≤ 1 h
